Data on nine compounds can be found in BindingDB's records for doi:10.1021/bi00839a042 (Michigan State University, 1969).

By Ki is commonly meant a measure of affinity in units of concentration, obtained from inhibition or displacement. The low end stands for a stronger hold on the target, the high end for a looser hold on the target.

The assay concerns the target T1, Complement C1s subcomponent (Homo sapiens, UniProt P09871).
T1 sequence (P09871 whole entry): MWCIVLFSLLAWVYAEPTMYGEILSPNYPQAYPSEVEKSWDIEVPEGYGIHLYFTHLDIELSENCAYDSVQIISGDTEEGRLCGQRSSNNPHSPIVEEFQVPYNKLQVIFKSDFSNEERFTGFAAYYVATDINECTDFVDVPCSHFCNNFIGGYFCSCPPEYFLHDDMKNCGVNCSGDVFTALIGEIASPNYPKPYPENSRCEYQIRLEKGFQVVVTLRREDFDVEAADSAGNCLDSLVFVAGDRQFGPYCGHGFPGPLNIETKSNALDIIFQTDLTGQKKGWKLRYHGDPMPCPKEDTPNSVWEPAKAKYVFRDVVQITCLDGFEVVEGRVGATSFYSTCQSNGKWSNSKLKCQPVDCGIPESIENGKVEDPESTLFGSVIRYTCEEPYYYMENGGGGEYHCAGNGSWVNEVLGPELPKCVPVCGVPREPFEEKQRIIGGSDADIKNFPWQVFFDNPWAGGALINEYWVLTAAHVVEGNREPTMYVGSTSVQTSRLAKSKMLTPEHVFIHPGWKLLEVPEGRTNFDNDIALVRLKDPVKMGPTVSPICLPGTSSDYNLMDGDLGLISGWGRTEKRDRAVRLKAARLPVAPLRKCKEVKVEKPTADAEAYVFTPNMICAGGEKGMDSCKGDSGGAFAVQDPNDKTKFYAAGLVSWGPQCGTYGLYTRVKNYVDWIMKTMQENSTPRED
Kind of assay: Enzymatic Assay. As to conditions: pH 8.05; 25.50 °C. The source says: All readings were made in a Hitachi-Coleman ultraviolet-visible 101 spectrophotometer.

Regarding `N=C(N)Nc1ccccc1` [Alpha-Phenylguanidine], the Ki came to 548 µM.
In the case of `Cc1nc(NC(=N)N)nc2ccccc12` [2-Guanidino-4-methylguinazoline] it was 76.5 µM; in that of `O=C(NC(Cc1ccc(O)cc1)C(=O)O)c1ccccc1` [N-z-L-Tyr], 370 µM.
As for `O=C(CCl)NC(Cc1ccc(O)cc1)C(=O)O` [N-Chloroacetyl-L-tyrosine], the figure is 1120 µM; as for `N=C(N)NCC(=O)O` [Guanidinacetic], 4370 µM.
In the case of `N=C(N)c1ccccc1` [Benzamidine] it was 603 µM; in that of `CC(C)(C)CNC(=N)N` [2,2'-Dimethyl-1-guanidinopropane], 13400 µM.
For the compound `N=C(N)NN` [CAS_2146], affinity was put at a Ki of 18100 µM.
As for `N=C(N)c1ccc([N+](=O)[O-])cc1` [p-Nitrobenzamidine], the figure is 92500 µM.
